Assay [1] concerns the target T1, B-Raf kinase (SEQ ID NO: 1) (Homo sapiens, UniProt P15056).
T1 construct: GST (N); purchased Sigma
Put plainly: Biochemical assay for B-Raf (coupled pyruvate kinase/lactate dehydrogenase). The conditions noted are these: 1 mM ATP; read-out: BRAF (inhibition of biochemical activity, IC50).

Assay [2] has as its target T2, C-Raf kinase (SEQ ID NO: 2) (Homo sapiens, UniProt P04049, Y340D/Y341D).
T2 construct: C-Raf residues 306-end; Y340D, Y341D with N-; GST (N); purchased Sigma
Put plainly: Biochemical assay for C-Raf (coupled pyruvate kinase/lactate dehydrogenase). The conditions noted are these: 1 mM ATP; read-out: CRAF (inhibition of biochemical activity, IC50).

Assay [3] relates to MiaPaca-2 cells. Description: MiaPaca-2 cell proliferation assay. Conditions: Homo sapiens, MIA PaCa-2; 67-72 h incubation, resazurin; read-out: MiaPaca-2 (inhibition of cell proliferation, IC50). The format is cell-based. The method, then:
Miapaca-2 cells (catalog #CRL-1420) are obtained from the American Type Culture Collect (ATTC, Manassas, VA). Briefly, cells were grown in DMEM supplemented with 10% characterized fetal bovine serum (Invitrogen, Carlsbad, CA), 2.5% New Zealand sourced horse serum and 1% Penicillin/Streptomycin/L-Glutamine at 37° C., 5% CO2, and 95% humidity. Cells are expanded until reaching 70-95% confluency at which point they are sub-cultured or harvested for assay use. A serial dilution of test compound is dispensed into a 384-well black clear bottom plate in triplicate. Seven hundred fifty cells are added per well in 50 μL complete growth medium in the 384-well plate. Plates are incubated for 67-72 h at 37° C., 5% CO2, and 95% humidity. At the end of the incubation, 10 μL of a 440 μM solution of resazurin (Sigma, St. Louis, MO) in PBS is added to each well of the plate and plates are incubated for an additional 5-6 h at 37° C., 5% CO2, and 95% humidity. Plates are read on a Synergy2 or equivalent reader (Biotek, Winooski VT) using an excitation of 540 nm and an emission of 600 nm. Data is analyzed using Prism software (GraphPad, San Diego, CA) to calculate IC50 values.
Background: The colour change of resazurin is a common sign of viable cells or microbes.

Assay [4] deals with HCT-116 cells. Description: HCT-116 cell proliferation assay. The format is cell-based. The conditions noted are these: Homo sapiens, HCT-116; 67 to 72 h incubation, resazurin; read-out: HCT-116 (inhibition of cell proliferation, IC50). The method, then: HCT-116 cells (catalog #CCL-247) are obtained from the American Type Culture Collect (ATCC, Manassas, VA). Briefly, cells are grown in McCoy's 5A supplemented with 10% characterized fetal bovine serum (Invitrogen, Carlsbad, CA) and 1% Penicillin/Streptomycin/L-Glutamine at 37° C., 5% CO2, and 95% humidity. Cells are expanded until reaching 70-95% confluency at which point they are sub-cultured or harvested for assay use. A serial dilution of test compound is dispensed into a 384-well black clear bottom plate in triplicate. 375 cells are added per well in 50 μL complete growth medium in the 384-well plate. Plates are incubated for 67 to 72 h at 37° C., 5% CO2, and 95% humidity. At the end of the incubation, 40 μL of a […] solution of resazurin (Sigma, St. Louis, MO) in PBS is added to each well of the plate and plates are incubated for an additional 4 to 5 h at 37° C., 5% CO2, and 95% humidity. Plates are read on a Synergy2 or equivalent reader (Biotek, Winooski, VT) using an excitation of 540 nm and an emission of 600 nm. Data is analyzed using Prism software (Graphpad, San Diego, CA) to calculate IC50 values.

Assay [5] relates to HPAF-II cells. Put plainly: HPAF-II cell proliferation assay. The format is cell-based. The conditions noted are these: Homo sapiens, HPAF-II; 115 to 120 h incubation, resazurin; read-out: HPAF-II (inhibition of cell proliferation, IC50). How it is done:
(§1) HPAF-II cells (catalog #CRL-1997) are obtained from the American Type Culture Collect (ATCC, Manassas, VA). Briefly, cells are grown in Minimum Essential Media supplemented with 10% characterized fetal bovine serum (Invitrogen, Carlsbad, CA) and 1% Penicillin/Streptomycin/L-Glutamine at 37° C., 5% CO2, and 95% humidity. Cells are expanded until reaching 70-95% confluency at which point they are sub-cultured or harvested for assay use. A serial dilution of test compound is dispensed into a 384-well black clear bottom plate in triplicate. 750 cells are added per well in 50 μL complete growth medium in the 384-well plate. Plates are incubated for 115 to 120 h at 37° C., 5% CO2, and 95% humidity. At the end of the incubation, 40 μL of a […] solution of resazurin (Sigma, St. Louis, MO) in PBS is added to each well of the plate and plates are incubated for an additional 18 to 24 h at 37° C., 5% CO2, and 95% humidity. Plates are read on a Synergy2 or equivalent reader (Biotek, Winooski, VT) using an excitation of 540 nm and an emission of 600 nm. Data is analyzed using Prism software (Graphpad, San Diego, CA) to calculate IC50 values.

Assay [6] relates to Pa16c cells. Description: Pa16c cell proliferation assay. The format is cell-based. The conditions noted are these: 67 to 72 h incubation, resazurin; read-out: Pa16c (inhibition of cell proliferation, IC50). The method, then:
as §1, with “Pa16c” for “HPAF-II”, “cells” for “cells (catalog #CRL-1997)”, “Dr. Channing Der, University of North Carolina at Chapel Hill.” for “the American Type Culture Collect (ATCC, Manassas, VA).”, “Dulbecco's Modified Eagle Medium” for “Minimum Essential Media”, “67” for “115”, “72” for “120”

Molecules are shown by their SMILES. Some results are limits rather than exact numbers.

T2 sequence (P04049 307-648 Y340D/Y341D): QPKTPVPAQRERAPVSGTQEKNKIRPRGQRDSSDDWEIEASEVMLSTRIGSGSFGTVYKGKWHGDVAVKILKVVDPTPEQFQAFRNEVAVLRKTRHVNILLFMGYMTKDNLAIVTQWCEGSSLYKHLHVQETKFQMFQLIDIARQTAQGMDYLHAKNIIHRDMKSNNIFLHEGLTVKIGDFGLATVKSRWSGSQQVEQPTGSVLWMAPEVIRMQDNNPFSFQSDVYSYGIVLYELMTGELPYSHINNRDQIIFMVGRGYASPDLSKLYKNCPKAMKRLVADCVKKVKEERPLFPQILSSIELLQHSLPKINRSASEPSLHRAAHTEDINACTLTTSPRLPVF
T1 sequence (P15056 416-766): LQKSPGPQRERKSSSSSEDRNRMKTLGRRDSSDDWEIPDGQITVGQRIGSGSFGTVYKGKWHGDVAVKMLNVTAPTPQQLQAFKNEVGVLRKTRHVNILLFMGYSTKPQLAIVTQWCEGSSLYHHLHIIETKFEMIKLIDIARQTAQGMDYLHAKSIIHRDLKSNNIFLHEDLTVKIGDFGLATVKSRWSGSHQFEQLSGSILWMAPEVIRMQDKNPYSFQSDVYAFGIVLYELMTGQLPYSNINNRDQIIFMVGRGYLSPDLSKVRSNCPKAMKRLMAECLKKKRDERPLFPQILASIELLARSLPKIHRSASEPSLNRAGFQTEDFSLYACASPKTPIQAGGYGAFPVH

Consider `Cc1ccc(NC(=O)c2cncc(Cl)c2)cc1-c1cc(N[C@H](C)CO)nc(N2CCOCC2)c1` [Example 16], for which the IC50 is below 100 nM in assay [1]; below 100 nM in assay [2]; 100 to 500 nM in assay [3]; 500 to 1000 nM in assay [4]; 500 to 1000 nM in assay [5]; 1000 to 10000 nM in assay [6].
Turning to `Cc1ccc(NC(=O)c2cnc(C3CC3)nc2)cc1-c1cc(N[C@H](C)CO)nc(N2CCOCC2)c1` [Example 17], the IC50 in assay [1] was 100 to 500 nM; in assay [2] it was below 100 nM; in assay [3], 500 to 1000 nM; in assay [4], 500 to 1000 nM; in assay [5], 500 to 1000 nM; in assay [6], 1000 to 10000 nM.
`Cc1ccc(NC(=O)c2cncc(C3CC3)c2)cc1-c1cc(N[C@H](C)CO)nc(N2CCOCC2)c1` [Example 18]: the IC50 in assay [1] was below 100 nM; in assay [2], below 100 nM; in assay [3], 100 to 500 nM; in assay [4], 100 to 500 nM; in assay [5], 100 to 500 nM; in assay [6], 1000 to 10000 nM.
On to `Cc1cc(-c2cc(NC(=O)c3cc(C4CC4)cnn3)ccc2C)cc(N2CCOCC2)n1` [Example 20], for which the IC50 in assay [1] was below 100 nM; in assay [2], below 100 nM; in assay [3] it was 100 to 500 nM; in assay [4], 100 to 500 nM; in assay [5] it was 100 to 500 nM; in assay [6], 1000 to 10000 nM.
As to `Cc1ccc(NC(=O)c2cc(C(F)(F)F)cnn2)cc1-c1cnnc(N2CCOCC2)c1` [Example 21, N-(4-methyl-3-(6-morpholinopyridazin-4-yl)phenyl)-5-(trifluoromethyl)pyridazine-3-carboxamide], the IC50 was 500 to 1000 nM in assay [1]; 500 to 1000 nM in assay [2]; 500 to 1000 nM in assay [3]; 500 to 1000 nM in assay [4]; 500 to 1000 nM in assay [5]; 1000 to 10000 nM in assay [6].
Regarding `Cc1ccc(NC(=O)c2cc(C(F)(F)F)cnn2)cc1-c1cc(N2CCOCC2)cnn1` [Example 22], the IC50 in assay [1], in assay [2], in assay [3], in assay [4], in assay [5] and in assay [6] was 1000 to 10000 nM in each case.
In the case of `Cc1ccc(NC(=O)c2cc(C(C)(C)F)cnn2)cc1-c1cc(N[C@H](C)CO)nc(N2CCOCC2)c1` [Example 23], the IC50 in assay [1] was below 100 nM; in assay [2], below 100 nM; in assay [3], below 100 nM; in assay [4], below 100 nM; in assay [5], below 100 nM; in assay [6], 100 to 500 nM.
For the compound `Cc1ccc(NC(=O)c2cc(C3CC3)cnn2)cc1-c1cncc(N2CCOCC2)c1` [Example 24], the IC50 in assay [1] is 100 to 500 nM; in assay [2], below 100 nM; in assay [3], 100 to 500 nM; in assay [4], 100 to 500 nM; in assay [5], 100 to 500 nM; in assay [6] it was 100 to 500 nM.
Regarding `Cc1ccc(NC(=O)c2cc(C(F)(F)F)cnn2)cc1-c1cc(N2CCOCC2)ncn1` [Example 25], the IC50 in assay [1] lay within 500 to 1000 nM; in assay [2], 500 to 1000 nM; in assay [3], 100 to 500 nM; in assay [4], 100 to 500 nM; in assay [5] it was 100 to 500 nM; in assay [6], 1000 to 10000 nM.
In the case of `Cc1ccc(NC(=O)c2cc(C(F)(F)F)cnn2)cc1-c1ccnc(N2CCOC(C(F)F)C2)c1` (stereo not drawn) [Example 26], the IC50 in assay [1] lay within 100 to 500 nM; in assay [2], 100 to 500 nM; in assay [3], 100 to 500 nM; in assay [4], 100 to 500 nM; in assay [5] it was 100 to 500 nM; in assay [6], 500 to 1000 nM.
Regarding `Cc1ccc(NC(=O)c2cc(C(F)(F)F)cnn2)cc1-c1cc(N[C@H](C)CO)nc(N2CCOCC2)n1` [Example 28], the IC50 in assay [1] was 100 to 500 nM; in assay [2] it was 100 to 500 nM; in assay [3] it was below 100 nM; in assay [4] it was 100 to 500 nM; in assay [5], below 100 nM; in assay [6] it was below 100 nM.
Turning to `Cc1ccc(NC(=O)c2cc(C(F)(F)F)cnn2)cc1-c1cc(OCCO)nc(N2CCOCC2)n1` [Example 30], the IC50 in assay [1] lay within 500 to 1000 nM; in assay [2], 100 to 500 nM; in assay [3], 100 to 500 nM; in assay [4], 100 to 500 nM; in assay [5] it was 100 to 500 nM; in assay [6] it was 100 to 500 nM.
Take `Cc1ccc(NC(=O)c2cc(C3CC3)cnn2)cc1-c1ccnc(N2CCOCC2)n1` [Example 31]: the IC50 was 1000 to 10000 nM in assay [1]; 500 to 1000 nM in assay [2]; 100 to 500 nM in assay [3]; 100 to 500 nM in assay [4]; 100 to 500 nM in assay [5]; below 100 nM in assay [6].
On to `Cc1ccc(NC(=O)c2cc(Cl)cnn2)cc1-c1cc(OCCO)nc(N2CCOCC2)c1` [Example 32], for which the IC50 in assay [1] was in the range of 500 to 1000 nM; in assay [2] it was 100 to 500 nM; in assay [3], 1000 to 10000 nM; in assay [4] it was 100 to 500 nM; in assay [5], 1000 to 10000 nM; in assay [6], 500 to 1000 nM.
On to `Cc1ccc(NC(=O)c2cc(C(F)(F)F)cnn2)cc1-c1cc(N2CCOCC2)nc(N[C@H](C)CO)n1` [Example 33], for which the IC50 is 100 to 500 nM in assay [1]; below 100 nM in assay [2]; 100 to 500 nM in assay [3]; 100 to 500 nM in assay [4]; 100 to 500 nM in assay [5]; 100 to 500 nM in assay [6].
With `Cc1ccc(NC(=O)c2cc(C3CC3)cnn2)cc1-c1cc(N2CCOCC2)nc(N[C@H](C)CO)n1` [Example 35], the IC50 in assay [1] was below 100 nM; in assay [2], below 100 nM; in assay [3] it was 100 to 500 nM; in assay [4], 100 to 500 nM; in assay [5], 100 to 500 nM; in assay [6] it was 100 to 500 nM.
For the compound `Cc1ccc(NC(=O)c2cc(C3CC3)cnn2)cc1-c1cc(N[C@H](C)CO)nc(N2CCOCC2)n1` [Example 36], the IC50 was 100 to 500 nM in assay [1]; 100 to 500 nM in assay [2]; 100 to 500 nM in assay [3]; 100 to 500 nM in assay [4]; 100 to 500 nM in assay [5]; 500 to 1000 nM in assay [6].

These data come from patent US20250206729A1, “DUAL RAF AND TUBULIN INHIBITORS AND METHODS OF USE THEREOF” (Deciphera Pharmaceuticals, LLC, priority 2023, published 2025).
